For assay [1], the system named is Qoi resistant isolate of Pyrenophora teres. As to the kind of experiment: Microtiter test: activity against net blotch Pyrenophora teres on barley (PYRNTE). The assay is classed as cell-based. The conditions noted are these: single active, 7 days after inoculation. The text has this: 2. Activity Against Net Blotch Pyrenophora teres on Barley in the Microtiter Test (PYRNTE)
These percentages were converted into efficacies.

The test system of assay [2] is Septoria tritici. The conditions noted are these: SEPTTR, single active, 7 days after inoculation.
Experimental: Activity Against Leaf Blotch on Wheat Caused by Septoria tritici (SEPTTR)
The stock solutions were mixed according to the ratio, pipetted onto a micro titer plate (MTP) and diluted with water to the stated concentrations. A spore suspension of Septoria tritici in an aqueous biomalt or yeast-bactopeptone-glycerine or DOB solution was then added. The plates were placed in a water vapor-saturated chamber at a temperature of 18° C. Using an absorption photometer, the MTPs were measured at 405 nm 7 days after the inoculation.
An efficacy of 0 means that the growth level of the pathogens corresponds to that of the untreated control; an efficacy of 100 means that the pathogens were not growing.

Like-named read-outs stand apart in the source and are kept apart here.

For `CC1CC(C)(C)c2cccc(NC(=O)c3cn(C)nc3C(F)F)c21` (stereo in doubt) [compound II, 3-(difluoromethyl)-N-[(3R)-2,3-dihydro-1,1,3-trimethyl-1H-inden-4-yl]-1-methyl-1H-pyrazole-4-carboxamide], the Observed efficacy in assay [1] (0.004 ppm) turned out to be 0%; in assay [1] (0.016 ppm) it was 10%; in assay [1] (0.063 ppm), 37%; in assay [2] (0.016 ppm), 0%; in assay [2] (0.063 ppm), 17%.
In assay [2] (0.004 ppm), `CO/C=C(/C(=O)OC)c1ccccc1Oc1cc(Oc2ccccc2C#N)ncn1` [azoxystrobin (A.1.1), azoxystrobin] came in with an Observed efficacy of 7%.
For the compound `CC(O)(Cn1cncn1)c1ccc(Oc2ccc(Cl)cc2)cc1C(F)(F)F` (stereo not drawn) [compound I, 2-[4-(4-chlorophenoxy)-2-(trifluoromethyl)phenyl]-1-(1,2,4-triazol-1-yl) propan-2-ol], the Observed efficacy in assay [1] (0.00025 ppm) was 0%; in assay [1] (0.001 ppm), 0%; in assay [1] (0.004 ppm), 0%; in assay [2] (0.001 ppm), 7%; in assay [2] (0.004 ppm), 69%.
`Cn1cc(C(=O)Nc2ccccc2-c2cc(F)c(F)c(F)c2)c(C(F)F)n1` [fluxapyroxad (A.3.9), fluxapyroxad]: the Observed efficacy in assay [1] (0.004 ppm) is on record as 0%.
`CC(C)c1ccc(Cl)cc1CN(C(=O)c1c(C(F)F)nn(C)c1F)C1CC1` [isoflucypram (A.3.26), isoflucypram] yielded an Observed efficacy in assay [2] (0.063 ppm) of 37%.
The compound `CON(C(=O)c1cn(C)nc1C(F)F)C(C)Cc1c(Cl)cc(Cl)cc1Cl` (stereo not drawn) [pydiflumetofen (A.3.17), pydiflumetofen] gave an Observed efficacy in assay [1] (0.063 ppm) of 10%.
Regarding `COC(=O)N(OC)c1ccccc1COc1ccn(-c2ccc(Cl)cc2)n1` [pyraclostrobin (A.1.14), pyraclostrobin], the Observed efficacy in assay [2] (0.001 ppm) was found to be 9%.

Source of the values: patent US20230397607A1, “COMPOSITIONS COMPRISING MEFENTRIFLUCONAZOLE” (BASF AGRO B.V., priority 2020, published 2023).
